# Measured values reported in patent US8247211B2, “Glycopeptide antibiotics” (American Cyanamid Company, priority 2001, dated 2012).
# Assays:
# Assay in all cases: In vitro antibacterial evaluation: minimum inhibitory concentration (MIC), broth dilution method
# Type in all cases: cell-based
# [1] = test system: Enterococcus sp.; details: 18 hours at 35° C.
# Outline: (§1)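 NCCLS M7-A2 broth dilution with Mueller-Hinton II, testing 64-0.06 μg/mL antibiotic against 5×10^5 CFU/mL inocula. Test strains include recent methicillin-, penicillin- or vancomycin-resistant clinical isolates. MIC is the lowest concentration preventing growth.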
# [2] = test system: Escherichia coli; details: 18 hours at 35° C.
# Outline: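 Values are minimum inhibitory concentrations, meaning the smallest antibiotic concentration that stops growth of the organism. They come from broth dilution in Muller-Hinton II […] per NCCLS guidance (M7-A2), using 5×10^5 CFU/mL and concentrations from 64 to 0.06 μg/mL.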
# [3] = test system: Staphylococcus sp.
# Outline: as §1
# [4] = test system: Streptococcus sp.; details: 18 hours at 35° C.
# Outline: as §1
# [5] = broth dilution, inoculum 5×10^5 CFU/mL
structure (smiles),measurement,setting,value
"CC(c1ccccc1)C1NC(=O)CNC(=O)C(CO)NC(=O)C(C(O)C2CNC(=N)N2C2OC(CO)C(O)C(O)C2O)NC(=O)C(C(O)C2CNC(=N)N2)NC(=O)C(Cc2ccc(OC3OC(CO)C(OC4OC5COC(C)(c6ccc(F)cc6)OC5C(O)C4O)C(O)C3O)cc2)NC1=O (stereo not drawn) [Example 216, Cyclo[glycyl-β-methylphenylalanyl-O-[4-O-[4,6-O-(4-fluoro-α-methylbenzylidene)hexopyranosyl]hexopyranosyl]tyrosyl-3-(2-iminoimidazolidin-4-yl)seryl-3-(3-hexopyranosyl-2-iminoimidazolidin-4-yl)serylseryl]]",MIC Enterococcus avium (GC 4558),[1]; Enterococcus avium (GC 4558),4 µg/mL
same,MIC Enterococcus faecalis (ATCC 29212),[1]; Enterococcus faecalis (ATCC 29212),4 µg/mL
same,MIC Enterococcus faecalis (GC 2242),[1]; Enterococcus faecalis (GC 2242),4 µg/mL
same,MIC Enterococcus faecalis (GC 2691),[1]; Enterococcus faecalis (GC 2691),4 µg/mL
same,MIC Enterococcus faecalis (GC 3059),[1]; Enterococcus faecalis (GC 3059),4 µg/mL
same,MIC Enterococcus faecalis (GC 4552),[1]; Enterococcus faecalis (GC 4552),4 µg/mL
same,MIC Enterococcus faecalis (GC 4553),[1]; Enterococcus faecalis (GC 4553),4 µg/mL
same,MIC Enterococcus faecalis (GC 4554),[1]; Enterococcus faecalis (GC 4554),4 µg/mL
same,MIC Enterococcus faecalis (GC 6189),[1]; Enterococcus faecalis (GC 6189),4 µg/mL
same,MIC Enterococcus faecium (GC 2243),[1]; Enterococcus faecium (GC 2243),4 µg/mL
same,MIC Enterococcus faecium (GC 4556),[1]; Enterococcus faecium (GC 4556),4 µg/mL
same,MIC Enterococcus faecium (GC 4557),[1]; Enterococcus faecium (GC 4557),4 µg/mL
same,MIC Enterococcus avium (GC 4558),[1]; [5],4 µg/mL
same,MIC Enterococcus faecalis (ATCC 29212),[1]; [5],4 µg/mL
same,MIC Enterococcus faecalis (GC 2242),[1]; [5],4 µg/mL
same,MIC Enterococcus faecalis (GC 2691),[1]; [5],4 µg/mL
same,MIC Enterococcus faecalis (GC 3059),[1]; [5],4 µg/mL
same,MIC Enterococcus faecalis (GC 4552),[1]; [5],4 µg/mL
same,MIC Enterococcus faecalis (GC 4553),[1]; [5],4 µg/mL
same,MIC Enterococcus faecalis (GC 4554),[1]; [5],4 µg/mL
same,MIC Enterococcus faecalis (GC 6189),[1]; [5],4 µg/mL
same,MIC Enterococcus faecium (GC 2243),[1]; [5],4 µg/mL
same,MIC Enterococcus faecium (GC 4556),[1]; [5],4 µg/mL
same,MIC Enterococcus faecium (GC 4557),[1]; [5],4 µg/mL
same,MIC Escherichia coli (ATCC 25922),[2]; Escherichia coli (ATCC 25922),32 µg/mL
same,MIC Escherichia coli (GC 4559),[2]; Escherichia coli (GC 4559),16 µg/mL
same,MIC Escherichia coli (GC 4560),[2]; Escherichia coli (GC 4560),2 µg/mL
same,MIC Staphylococcus aureus (ATCC 29213),[3]; strain ATCC 29213,2 µg/mL
same,MIC Staphylococcus aureus (GC 1131),[3]; strain GC 1131,2 µg/mL
same,MIC Staphylococcus aureus (GC 3051),[3]; strain GC 3051,2 µg/mL
same,MIC Staphylococcus aureus (GC 3053),[3]; strain GC 3053,2 µg/mL
same,MIC Staphylococcus aureus (GC 4541),[3]; strain GC 4541,1 µg/mL
same,MIC Staphylococcus aureus (GC 4542),[3]; strain GC 4542,1 µg/mL
same,MIC Staphylococcus aureus-SMITH (GC 4543),[3]; strain GC 4543,2 µg/mL
same,MIC Staphylococcus aureus (GC 4544),[3]; strain GC 4544,2 µg/mL
same,MIC Staphylococcus aureus (GC 4545),[3]; strain GC 4545,1 µg/mL
same,MIC Staphylococcus haemolyticus (GC 4546),[3]; strain GC 4546,1 µg/mL
same,MIC Coagulase Negative Staphylococcus (GC 4547),[3]; strain GC 4547,2 µg/mL
same,MIC Coagulase Negative Staphylococcus (GC 4548),[3]; strain GC 4548,1 µg/mL
same,MIC Coagulase Negative Staphylococcus (GC 4549),[3]; strain GC 4549,1 µg/mL
same,MIC Coagulase Negative Staphylococcus (GC 4551),[3]; strain GC 4551,2 µg/mL
same,MIC Coagulase Negative Staphylococcus (GC 6257),[3]; strain GC 6257,1 µg/mL
same,MIC Streptococcus agalactiae (GC 4564),[4]; Streptococcus agalactiae (GC 4564),0.5 µg/mL
same,MIC Streptococcus pneumoniae (ATCC 6301),[4]; Streptococcus pneumoniae (ATCC 6301),0.25 µg/mL
same,MIC Streptococcus pneumoniae (GC 1894),[4]; Streptococcus pneumoniae (GC 1894),<0.06 µg/mL
same,MIC Streptococcus pneumoniae (GC 4565),[4]; Streptococcus pneumoniae (GC 4565),0.25 µg/mL
same,MIC Streptococcus pyogenes (GC 4563),[4]; Streptococcus pyogenes (GC 4563),0.5 µg/mL
same,MIC Streptococcus agalactiae (GC 4564),[4]; [5],0.5 µg/mL
same,MIC Streptococcus pneumoniae (ATCC 6301),[4]; [5],0.25 µg/mL
same,MIC Streptococcus pneumoniae (GC 1894),[4]; [5],<0.06 µg/mL
same,MIC Streptococcus pneumoniae (GC 4565),[4]; [5],0.25 µg/mL
same,MIC Streptococcus pyogenes (GC 4563),[4]; [5],0.5 µg/mL
